Test results from patent US20260138990A1, “TRICYCLIC FUSED IMIDAZOLE COMPOUNDS AS CD38 MODULATORS AND USES THEREOF” (AEOVIAN PHARMACEUTICALS, INC., priority 2023, published 2026).

Tests used:
mouse CD38 = biological target: T1, mouse CD38 (Mus musculus, UniProt P56528); assay: NAD+ cyclase activity assay with mouse recombinant CD38 protein (ε-NAD fluorescence); type: biochemical; conditions: 0.6 nM mouse CD38, substrate ε-NAD, 30 min preincubation, fluorescence 300/410 nm
T1 construct: purchased Bio-Techne GmbH 4947-AC
T1 sequence (P56528 1-304): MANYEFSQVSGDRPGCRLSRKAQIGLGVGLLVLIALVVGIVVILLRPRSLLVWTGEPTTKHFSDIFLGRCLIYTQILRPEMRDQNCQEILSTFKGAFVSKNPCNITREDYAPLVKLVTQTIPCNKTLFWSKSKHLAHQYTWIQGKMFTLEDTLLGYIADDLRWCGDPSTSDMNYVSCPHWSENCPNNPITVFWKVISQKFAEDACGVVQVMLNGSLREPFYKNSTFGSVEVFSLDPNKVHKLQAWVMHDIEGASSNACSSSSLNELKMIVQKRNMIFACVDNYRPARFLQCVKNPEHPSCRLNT
Procedure, shortened: (§1)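 Twelve-point threefold compound dilutions were given 30 min at room temperature with 0.6 nM mouse or 1.9 nM human CD38 before […] ε-NAD was added (pH 7.5 HEPES/sucrose/Tween buffer). The rate came from the linear-phase slope of ex 300/em 410 nm fluorescence against vehicle and no-CD38 controls.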

human CD38 = biological target: T2, human CD38 (Homo sapiens, UniProt P28907); assay: NAD+ cyclase activity assay with human recombinant CD38 protein (ε-NAD fluorescence); type: biochemical; conditions: 1.9 nM human CD38, substrate ε-NAD, 30 min preincubation, fluorescence 300/410 nm
T2 construct: purchased Bio-Techne GmbH AVI2404
T2 sequence (P28907 1-300): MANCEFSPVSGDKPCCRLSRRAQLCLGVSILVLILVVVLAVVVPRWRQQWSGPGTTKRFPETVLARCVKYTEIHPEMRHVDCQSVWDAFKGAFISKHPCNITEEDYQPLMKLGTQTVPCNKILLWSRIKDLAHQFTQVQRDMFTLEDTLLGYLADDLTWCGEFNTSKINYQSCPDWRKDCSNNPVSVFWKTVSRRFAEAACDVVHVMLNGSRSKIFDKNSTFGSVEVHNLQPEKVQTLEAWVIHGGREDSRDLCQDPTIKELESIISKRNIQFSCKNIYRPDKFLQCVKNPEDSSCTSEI
Procedure, shortened: as §1

SMILES	IC50 (mouse CD38) [nM]	IC50 (human CD38) [nM]
CC(=O)N[C@H]1CC[C@H](NC(=O)c2ccc3c(c2)-c2cncn2CCO3)CC1 [Compound 60A, N-((1r,4r)-4-Acetamidocyclohexyl)-5,6-dihydrobenzo[f]imidazo[1,5-d][1,4]oxazepine-10-carboxamide]	1 to 10	100 to 1000
O=C(N[C@H]1CC[C@H](C(=O)NCC(F)(F)F)CC1)c1ccc2c(c1)-c1cncn1CCO2 [Compound 61A, N-((1r,4r)-4-((2,2,2-Trifluoroethyl)carbamoyl)cyclohexyl)-5,6-dihydrobenzo[f]imidazo[1,5-d][1,4]oxazepine-10-carboxamide]	< 1	< 30
O=C(N[C@H]1CC[C@H](NCC(F)(F)F)CC1)c1ccc2c(c1)-c1cncn1CCO2 [Compound 62A, N-((1r,4r)-4-((2,2,2-Trifluoroethyl)amino)cyclohexyl)-5,6-dihydrobenzo[f]imidazo[1,5-d][1,4]oxazepine-10-carboxamide]	1 to 10	< 30
O=C(N[C@H]1CC[C@H](NCC(F)F)CC1)c1ccc2c(c1)-c1cncn1CCO2 [Compound 63A, N-((1r,4r)-4-((2,2-Difluoroethyl)amino)cyclohexyl)-5,6-dihydrobenzo[f]imidazo[1,5-d][1,4]oxazepine-10-carboxamide]	1 to 10	< 30
O=C(N[C@H]1CC[C@@H](N2CC(F)(F)C2)CC1)c1ccc2c(c1)-c1cncn1CCO2 [Compound 64A, N-((1s,4s)-4-(3,3-Difluoroazetidin-1-yl)cyclohexyl)-5,6-dihydrobenzo[f]imidazo[1,5-d][1,4]oxazepine-10-carboxamide]	10 to 100	100 to 1000
O=C(N[C@H]1CC[C@H](CO)CC1)c1ccc2c(c1)-c1cncn1CCO2 [Compound 65A, N-((1r,4r)-4-(Hydroxymethyl)cyclohexyl)-5,6-dihydrobenzo[f]imidazo[1,5-d][1,4]oxazepine-10-carboxamide]	< 1	< 30
O=C(NC1CCC(F)(F)C1)c1ccc2c(c1)-c1cncn1CCO2 (stereo not drawn) [Compound 66A, N-(3,3-Difluorocyclopentyl)-5,6-dihydrobenzo[f]imidazo[1,5-d][1,4]oxazepine-10-carboxamide]	< 1	< 30
COCCC(=O)N[C@H]1CC[C@H](NC(=O)c2ccc3c(c2)-c2cncn2CCO3)CC1 [Compound 67A, N-((1r,4r)-4-(3-Methoxypropanamido)cyclohexyl)-5,6-dihydrobenzo[f]imidazo[1,5-d][1,4]oxazepine-10-carboxamide]	1 to 10	100 to 1000
CC1COc2ccc(C(=O)N[C@@H]3CCCOC3)cc2-c2cncn21 (stereo partly drawn) [Compound 68A, 5-Methyl-N—((R)-tetrahydro-2H-pyran-3-yl)-5,6-dihydrobenzo[f]imidazo[1,5-d][1,4]oxazepine-10-carboxamide]	10 to 100	100 to 1000
O=C(N[C@H]1CC[C@@H](N2CCC(F)(F)C2)CC1)c1ccc2c(c1)-c1cncn1CCO2 [Compound 69A, N-((1s,4s)-4-(3,3-Difluoropyrrolidin-1-yl)cyclohexyl)-5,6-dihydrobenzo[f]imidazo[1,5-d][1,4]oxazepine-10-carboxamide]	10 to 100	100 to 1000
COCCO[C@H]1CC[C@H](NC(=O)c2ccc3c(n2)-n2cncc2CCO3)CC1 [Compound 70A, N-((1r,4r)-4-(2-Methoxyethoxy)cyclohexyl)-6,7-dihydroimidazo[1,5-d]pyrido[3,2-b][1,4]oxazepine-2-carboxamide]	10 to 100	100 to 1000
O=C(N[C@H]1CC[C@H](N2CCC(F)(F)C2)CC1)c1ccc2c(c1)-c1cncn1CCO2 [Compound 71A, N-((1r,4r)-4-(3,3-Difluoropyrrolidin-1-yl)cyclohexyl)-5,6-dihydrobenzo[f]imidazo[1,5-d][1,4]oxazepine-10-carboxamide]	1 to 10	< 30
O=C(N[C@H]1CC[C@H](N2CC(F)(F)C2)CC1)c1ccc2c(c1)-c1cncn1CCO2 [Compound 72A, N-((1r,4r)-4-(3,3-Difluoroazetidin-1-yl)cyclohexyl)-5,6-dihydrobenzo[f]imidazo[1,5-d][1,4]oxazepine-10-carboxamide]	< 1	< 30
O=C(NC1CCC(F)(F)CC1)c1cc(F)c2c(c1)-c1cncn1CCO2 [Compound 73A, N-(4,4-Difluorocyclohexyl)-8-fluoro-5,6-dihydrobenzo[f]imidazo[1,5-d][1,4]oxazepine-10-carboxamide]	< 1	< 30
C[C@@H](N[C@H]1CC[C@H](NC(=O)c2ccc3c(c2)-c2cncn2CCO3)CC1)C(F)(F)F [Compound 74A, N-((1r,4r)-4-(((R)-1,1,1-Trifluoropropan-2-yl)amino)cyclohexyl)-5,6-dihydrobenzo[f]imidazo[1,5-d][1,4]oxazepine-10-carboxamide]	1 to 10	30 to 100
O=C(N[C@H]1CC[C@@H](OCCC(F)F)CC1)c1ccc2c(c1)-c1cncn1CCO2 [Compound 77A, N-((1s,4s)-4-(3,3-Difluoropropoxy)cyclohexyl)-5,6-dihydrobenzo[f]imidazo[1,5-d][1,4]oxazepine-10-carboxamide]	1 to 10	< 30
O=C(N[C@H]1CC[C@H](OCCC(F)F)CC1)c1ccc2c(c1)-c1cncn1CCO2 [Compound 78A, N-((1r,4r)-4-(3,3-Difluoropropoxy)cyclohexyl)-5,6-dihydrobenzo[f]imidazo[1,5-d][1,4]oxazepine-10-carboxamide]	> 100	100 to 1000
O=C(N[C@H]1CC[C@@H](OCCCF)CC1)c1ccc2c(c1)-c1cncn1CCO2 [Compound 79A, N-((1s,4s)-4-(3-Fluoropropoxy)cyclohexyl)-5,6-dihydrobenzo[f]imidazo[1,5-d][1,4]oxazepine-10-carboxamide]	10 to 100	100 to 1000
O=C(N[C@H]1CC[C@H](OCCCF)CC1)c1ccc2c(c1)-c1cncn1CCO2 [Compound 80A, N-((1r,4r)-4-(3-Fluoropropoxy)cyclohexyl)-5,6-dihydrobenzo[f]imidazo[1,5-d][1,4]oxazepine-10-carboxamide]	1 to 10	< 30
COCCOc1ncc(NC(=O)c2ccc3c(c2)-c2cncn2CCO3)cn1 [Compound 81A, N-(2-(2-Methoxyethoxy)pyrimidin-5-yl)-5,6-dihydrobenzo[f]imidazo[1,5-d][1,4]oxazepine-10-carboxamide]	1 to 10	< 30
O=C(N[C@H]1CC[C@H](NC2CCC2(F)F)CC1)c1ccc2c(c1)-c1cncn1CCO2 (stereo partly drawn) [Compound 82A, N-((1r,4r)-4-((2,2-Difluorocyclobutyl)amino)cyclohexyl)-5,6-dihydrobenzo[f]imidazo[1,5-d][1,4]oxazepine-10-carboxamide]	1 to 10	< 30
CC(C)(F)CN[C@H]1CC[C@H](NC(=O)c2ccc3c(c2)-c2cncn2CCO3)CC1 [Compound 83A, N-((1r,4r)-4-((2-Fluoro-2-methylpropyl)amino)cyclohexyl)-5,6-dihydrobenzo[f]imidazo[1,5-d][1,4]oxazepine-10-carboxamide]	10 to 100	100 to 1000
O=C(NC1CC(F)(F)C1)c1ccc2c(c1)-c1cncn1CCO2 [Compound 84A, N-(3,3-Difluorocyclobutyl)-5,6-dihydrobenzo[f]imidazo[1,5-d][1,4]oxazepine-10-carboxamide]	1 to 10	< 30
CS(=O)(=O)CCCO[C@H]1CC[C@H](NC(=O)c2ccc3c(c2)-c2cncn2CCO3)CC1 [Compound 85A, N-((1r,4r)-4-(3-(Methylsulfonyl)propoxy)cyclohexyl)-5,6-dihydrobenzo[f]imidazo[1,5-d][1,4]oxazepine-10-carboxamide]	1 to 10	< 30
CS(=O)(=O)CCCO[C@H]1CC[C@@H](NC(=O)c2ccc3c(c2)-c2cncn2CCO3)CC1 [Compound 86A, N-((1s,4s)-4-(3-(Methylsulfonyl)propoxy)cyclohexyl)-5,6-dihydrobenzo[f]imidazo[1,5-d][1,4]oxazepine-10-carboxamide]	> 100	100 to 1000
C[C@H](N[C@H]1CC[C@H](NC(=O)c2ccc3c(c2)-c2cncn2CCO3)CC1)C(F)(F)F [Compound 87A, N-((1r,4r)-4-(((S)-1,1,1-Trifluoropropan-2-yl)amino)cyclohexyl)-5,6-dihydrobenzo[f]imidazo[1,5-d][1,4]oxazepine-10-carboxamide]	< 1	< 30
CC(C)(N[C@H]1CC[C@H](NC(=O)c2ccc3c(c2)-c2cncn2CCO3)CC1)C(F)(F)F [Compound 88A, N-((1r,4r)-4-((1,1,1-Trifluoro-2-methylpropan-2-yl)amino)cyclohexyl)-5,6-dihydrobenzo[f]imidazo[1,5-d][1,4]oxazepine-10-carboxamide]	< 1	< 30
